The test has as its target VEGFR2 (KDR/Flk-1) (Homo sapiens, UniProt P35968). Put plainly: ELISA-based in vitro VEGFR2 tyrosine kinase assay (HTScan VEGFR2 kinase assay kit). The format is biochemical.

Chain of VEGFR2 (KDR/Flk-1) (P35968 20-1356): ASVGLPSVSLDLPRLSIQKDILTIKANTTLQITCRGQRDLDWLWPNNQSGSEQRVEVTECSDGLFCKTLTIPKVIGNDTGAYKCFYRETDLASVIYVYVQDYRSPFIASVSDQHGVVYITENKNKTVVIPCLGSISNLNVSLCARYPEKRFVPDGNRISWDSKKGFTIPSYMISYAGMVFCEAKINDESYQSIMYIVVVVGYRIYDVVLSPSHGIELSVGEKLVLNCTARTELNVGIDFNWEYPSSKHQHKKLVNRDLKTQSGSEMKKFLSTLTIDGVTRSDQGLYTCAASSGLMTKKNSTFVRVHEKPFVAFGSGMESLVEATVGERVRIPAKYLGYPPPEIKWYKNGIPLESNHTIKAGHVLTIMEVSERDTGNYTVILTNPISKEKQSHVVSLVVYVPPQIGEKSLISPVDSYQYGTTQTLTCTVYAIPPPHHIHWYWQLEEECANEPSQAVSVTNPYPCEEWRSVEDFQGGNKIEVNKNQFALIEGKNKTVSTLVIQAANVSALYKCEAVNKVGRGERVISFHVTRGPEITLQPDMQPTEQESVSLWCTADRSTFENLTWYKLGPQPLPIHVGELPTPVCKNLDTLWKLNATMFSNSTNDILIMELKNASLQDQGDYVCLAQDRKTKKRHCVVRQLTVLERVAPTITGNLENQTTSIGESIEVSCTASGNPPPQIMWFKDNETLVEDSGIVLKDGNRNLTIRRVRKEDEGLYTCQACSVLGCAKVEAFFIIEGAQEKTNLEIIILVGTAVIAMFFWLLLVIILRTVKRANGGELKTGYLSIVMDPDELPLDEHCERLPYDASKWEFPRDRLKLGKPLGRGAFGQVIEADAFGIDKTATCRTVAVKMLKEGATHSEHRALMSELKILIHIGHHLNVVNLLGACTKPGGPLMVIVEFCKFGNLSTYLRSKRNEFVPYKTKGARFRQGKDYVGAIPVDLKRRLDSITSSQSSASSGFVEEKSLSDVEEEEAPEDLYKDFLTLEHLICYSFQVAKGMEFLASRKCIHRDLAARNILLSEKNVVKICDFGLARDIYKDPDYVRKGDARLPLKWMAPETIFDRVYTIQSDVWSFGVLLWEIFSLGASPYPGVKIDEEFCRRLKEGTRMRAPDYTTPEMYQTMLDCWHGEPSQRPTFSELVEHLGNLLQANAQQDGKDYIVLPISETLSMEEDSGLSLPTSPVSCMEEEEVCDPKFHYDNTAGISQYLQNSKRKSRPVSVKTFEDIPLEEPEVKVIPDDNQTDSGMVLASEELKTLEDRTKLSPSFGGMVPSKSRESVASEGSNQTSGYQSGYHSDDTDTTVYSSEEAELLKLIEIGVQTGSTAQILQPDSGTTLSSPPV

As for `O=c1c(O)c(-c2ccc(O[C@@H]3O[C@H](CO)[C@@H](O)[C@H](O)[C@H]3O)c(O)c2)oc2cc(O)cc(O)c12` [QODG, Quercetin-4′-O-β-D-glucopyranoside], the IC50 worked out at 20.1 nM. This counts as double-digit nanomolar.

A word on the IC50: it is the concentration at which inhibition is half-maximal. Read a high IC50 as weaker potency.

Values taken from paper PMC3278463, “Quercetin-4′-O-β-D-glucopyranoside (QODG) Inhibits Angiogenesis by Suppressing VEGFR2-Mediated Signaling in Zebrafish and Endothelial Cells” (PLoS ONE, 2012).
